{
  "source": "patent US20250312462A1",
  "about": "“PAK1 DEGRADERS AND METHODS OF USE THEREOF” (INSTITUTE FOR CANCER RESEARCH D/B/A THE RESEARCH INSTITUTE …, priority 2022, published 2025)",
  "test_in_all_cases": "KINOMEscan",
  "settings_in_all_cases": "read-out: Percent Control",
  "key": {"[1]": {"target": "ROCK1 (Homo sapiens, UniProt Q13464)", "experimental": "(§1) The kinase engagement assay (KINOMEscan®) was performed by DiscoverX assessing binding abilities toward a set of kinases."}, "[2]": {"target": "RIOK1 (Homo sapiens, UniProt Q9BRS2)", "experimental": "as §1"}, "[3]": {"target": "NEK2 (Homo sapiens, UniProt P51955)", "sequence (P51955 whole entry)": "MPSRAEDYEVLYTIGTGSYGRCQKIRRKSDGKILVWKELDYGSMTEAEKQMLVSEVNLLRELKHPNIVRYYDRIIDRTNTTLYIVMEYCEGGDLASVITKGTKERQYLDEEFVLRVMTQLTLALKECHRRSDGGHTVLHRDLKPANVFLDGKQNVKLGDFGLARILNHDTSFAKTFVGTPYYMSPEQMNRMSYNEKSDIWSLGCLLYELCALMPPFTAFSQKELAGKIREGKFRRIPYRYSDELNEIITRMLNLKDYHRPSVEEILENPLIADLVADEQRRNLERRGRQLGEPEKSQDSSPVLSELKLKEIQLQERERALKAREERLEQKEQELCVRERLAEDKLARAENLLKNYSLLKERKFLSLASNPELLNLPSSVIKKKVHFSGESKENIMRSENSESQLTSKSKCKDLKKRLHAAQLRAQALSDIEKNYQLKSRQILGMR", "experimental": "as §1"}, "[4]": {"target": "GRK1 (Homo sapiens, UniProt Q15835)", "sequence (Q15835 whole entry)": "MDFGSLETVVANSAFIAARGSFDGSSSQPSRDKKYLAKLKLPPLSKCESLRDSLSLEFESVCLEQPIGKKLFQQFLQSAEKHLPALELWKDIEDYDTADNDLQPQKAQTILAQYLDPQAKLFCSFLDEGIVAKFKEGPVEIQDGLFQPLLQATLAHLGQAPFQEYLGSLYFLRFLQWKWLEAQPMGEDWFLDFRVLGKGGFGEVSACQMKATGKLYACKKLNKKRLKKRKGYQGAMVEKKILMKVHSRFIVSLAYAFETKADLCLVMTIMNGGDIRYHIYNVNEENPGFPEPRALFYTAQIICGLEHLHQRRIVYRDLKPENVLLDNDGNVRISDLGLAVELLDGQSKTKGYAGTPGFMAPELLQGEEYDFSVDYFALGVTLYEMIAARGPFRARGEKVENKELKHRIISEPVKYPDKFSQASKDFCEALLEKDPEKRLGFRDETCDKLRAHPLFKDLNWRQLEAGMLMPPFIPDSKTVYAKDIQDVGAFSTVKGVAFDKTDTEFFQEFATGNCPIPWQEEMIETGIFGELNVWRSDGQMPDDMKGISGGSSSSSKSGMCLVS", "experimental": "as §1"}, "[5]": {"target": "IKK-epsilon (Homo sapiens, UniProt Q14164)", "experimental": "as §1"}, "[6]": {"target": "ADCK4 (Homo sapiens, UniProt Q96D53)", "experimental": "as §1"}, "[7]": {"target": "GRK3 (Homo sapiens, UniProt P35626)", "sequence (P35626 whole entry)": "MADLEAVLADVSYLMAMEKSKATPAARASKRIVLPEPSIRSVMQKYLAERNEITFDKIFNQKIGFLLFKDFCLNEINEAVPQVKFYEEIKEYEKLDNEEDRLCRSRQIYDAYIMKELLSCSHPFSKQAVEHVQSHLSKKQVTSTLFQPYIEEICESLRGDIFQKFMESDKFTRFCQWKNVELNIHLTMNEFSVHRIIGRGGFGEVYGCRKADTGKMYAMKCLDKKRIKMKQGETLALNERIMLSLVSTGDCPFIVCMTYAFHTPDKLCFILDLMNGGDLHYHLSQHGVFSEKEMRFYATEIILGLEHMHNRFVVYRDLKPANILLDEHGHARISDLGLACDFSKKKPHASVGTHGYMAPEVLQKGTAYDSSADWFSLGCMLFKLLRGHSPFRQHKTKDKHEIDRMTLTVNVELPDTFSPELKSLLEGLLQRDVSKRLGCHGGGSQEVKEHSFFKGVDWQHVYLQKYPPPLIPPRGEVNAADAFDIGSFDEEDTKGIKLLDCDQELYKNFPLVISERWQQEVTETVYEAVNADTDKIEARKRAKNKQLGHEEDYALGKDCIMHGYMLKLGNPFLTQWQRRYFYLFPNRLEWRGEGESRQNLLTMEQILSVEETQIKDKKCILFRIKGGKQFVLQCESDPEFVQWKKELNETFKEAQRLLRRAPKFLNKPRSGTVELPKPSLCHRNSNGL", "experimental": "as §1"}, "[8]": {"target": "MLK1 (Homo sapiens, UniProt P80192)", "experimental": "as §1"}, "[9]": {"target": "SGK (Homo sapiens, UniProt O00141)", "experimental": "as §1"}, "[10]": {"target": "YSK1 (Homo sapiens, UniProt O00506)", "experimental": "as §1"}, "[11]": {"target": "WNK1 (Homo sapiens, UniProt Q9H4A3)", "experimental": "as §1"}, "[12]": {"target": "IKK-alpha (Homo sapiens, UniProt O15111)", "sequence (O15111 whole entry)": "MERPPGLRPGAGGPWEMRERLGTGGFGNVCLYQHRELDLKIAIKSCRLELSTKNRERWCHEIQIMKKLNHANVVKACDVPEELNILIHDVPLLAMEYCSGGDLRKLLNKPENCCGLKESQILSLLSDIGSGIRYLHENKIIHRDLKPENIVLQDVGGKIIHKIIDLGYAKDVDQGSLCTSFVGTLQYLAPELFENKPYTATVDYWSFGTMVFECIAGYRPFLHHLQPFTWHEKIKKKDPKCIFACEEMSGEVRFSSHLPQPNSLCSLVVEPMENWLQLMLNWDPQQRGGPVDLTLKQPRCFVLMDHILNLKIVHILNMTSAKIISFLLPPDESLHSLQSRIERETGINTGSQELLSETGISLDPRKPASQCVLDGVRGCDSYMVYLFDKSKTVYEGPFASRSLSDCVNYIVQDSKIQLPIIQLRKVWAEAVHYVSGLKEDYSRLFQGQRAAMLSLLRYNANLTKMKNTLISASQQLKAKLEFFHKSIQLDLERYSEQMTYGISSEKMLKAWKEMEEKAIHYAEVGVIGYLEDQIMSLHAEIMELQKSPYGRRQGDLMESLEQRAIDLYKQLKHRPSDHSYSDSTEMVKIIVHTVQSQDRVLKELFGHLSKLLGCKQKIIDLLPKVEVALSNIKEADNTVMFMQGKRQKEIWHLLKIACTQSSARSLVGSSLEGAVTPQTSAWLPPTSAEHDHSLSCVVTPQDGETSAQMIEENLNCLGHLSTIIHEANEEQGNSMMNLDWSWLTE", "experimental": "as §1"}, "[13]": {"target": "SIK (Homo sapiens, UniProt P57059)", "experimental": "as §1"}, "[14]": {"target": "GCN2(Kin.Dom.2, S808G) (Homo sapiens, UniProt Q9P2K8, S808G)", "experimental": "as §1"}, "[15]": {"target": "QSK (Homo sapiens, UniProt Q9Y2K2)", "experimental": "as §1"}, "[16]": {"target": "RIOK2 (Homo sapiens, UniProt Q9BVS4)", "sequence (Q9BVS4 whole entry)": "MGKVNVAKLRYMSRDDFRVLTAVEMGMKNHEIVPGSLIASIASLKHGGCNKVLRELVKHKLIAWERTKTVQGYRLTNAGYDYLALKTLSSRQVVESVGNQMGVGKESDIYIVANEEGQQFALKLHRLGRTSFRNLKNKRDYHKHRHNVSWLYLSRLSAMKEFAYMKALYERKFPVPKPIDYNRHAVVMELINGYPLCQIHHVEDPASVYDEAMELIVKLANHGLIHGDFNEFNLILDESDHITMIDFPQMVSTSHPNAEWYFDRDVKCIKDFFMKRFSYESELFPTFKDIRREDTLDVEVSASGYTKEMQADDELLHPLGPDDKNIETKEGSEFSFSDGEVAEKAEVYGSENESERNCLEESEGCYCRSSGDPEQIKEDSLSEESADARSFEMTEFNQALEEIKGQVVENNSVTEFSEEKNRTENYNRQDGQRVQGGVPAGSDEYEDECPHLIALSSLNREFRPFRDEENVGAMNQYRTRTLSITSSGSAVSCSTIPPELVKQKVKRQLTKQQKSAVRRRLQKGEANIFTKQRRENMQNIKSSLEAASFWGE", "experimental": "as §1"}, "[17]": {"target": "MST1R (Homo sapiens, UniProt Q04912)", "experimental": "as §1"}, "[18]": {"target": "TESK1 (Homo sapiens, UniProt Q15569)", "experimental": "as §1"}, "[19]": {"target": "GSK3A (Homo sapiens, UniProt P49840)", "experimental": "as §1"}, "[20]": {"target": "ICK (Homo sapiens, UniProt Q9UPZ9)", "experimental": "as §1"}, "[21]": {"target": "MAP3K4 (Homo sapiens, UniProt Q9Y6R4)", "sequence (Q9Y6R4 whole entry)": "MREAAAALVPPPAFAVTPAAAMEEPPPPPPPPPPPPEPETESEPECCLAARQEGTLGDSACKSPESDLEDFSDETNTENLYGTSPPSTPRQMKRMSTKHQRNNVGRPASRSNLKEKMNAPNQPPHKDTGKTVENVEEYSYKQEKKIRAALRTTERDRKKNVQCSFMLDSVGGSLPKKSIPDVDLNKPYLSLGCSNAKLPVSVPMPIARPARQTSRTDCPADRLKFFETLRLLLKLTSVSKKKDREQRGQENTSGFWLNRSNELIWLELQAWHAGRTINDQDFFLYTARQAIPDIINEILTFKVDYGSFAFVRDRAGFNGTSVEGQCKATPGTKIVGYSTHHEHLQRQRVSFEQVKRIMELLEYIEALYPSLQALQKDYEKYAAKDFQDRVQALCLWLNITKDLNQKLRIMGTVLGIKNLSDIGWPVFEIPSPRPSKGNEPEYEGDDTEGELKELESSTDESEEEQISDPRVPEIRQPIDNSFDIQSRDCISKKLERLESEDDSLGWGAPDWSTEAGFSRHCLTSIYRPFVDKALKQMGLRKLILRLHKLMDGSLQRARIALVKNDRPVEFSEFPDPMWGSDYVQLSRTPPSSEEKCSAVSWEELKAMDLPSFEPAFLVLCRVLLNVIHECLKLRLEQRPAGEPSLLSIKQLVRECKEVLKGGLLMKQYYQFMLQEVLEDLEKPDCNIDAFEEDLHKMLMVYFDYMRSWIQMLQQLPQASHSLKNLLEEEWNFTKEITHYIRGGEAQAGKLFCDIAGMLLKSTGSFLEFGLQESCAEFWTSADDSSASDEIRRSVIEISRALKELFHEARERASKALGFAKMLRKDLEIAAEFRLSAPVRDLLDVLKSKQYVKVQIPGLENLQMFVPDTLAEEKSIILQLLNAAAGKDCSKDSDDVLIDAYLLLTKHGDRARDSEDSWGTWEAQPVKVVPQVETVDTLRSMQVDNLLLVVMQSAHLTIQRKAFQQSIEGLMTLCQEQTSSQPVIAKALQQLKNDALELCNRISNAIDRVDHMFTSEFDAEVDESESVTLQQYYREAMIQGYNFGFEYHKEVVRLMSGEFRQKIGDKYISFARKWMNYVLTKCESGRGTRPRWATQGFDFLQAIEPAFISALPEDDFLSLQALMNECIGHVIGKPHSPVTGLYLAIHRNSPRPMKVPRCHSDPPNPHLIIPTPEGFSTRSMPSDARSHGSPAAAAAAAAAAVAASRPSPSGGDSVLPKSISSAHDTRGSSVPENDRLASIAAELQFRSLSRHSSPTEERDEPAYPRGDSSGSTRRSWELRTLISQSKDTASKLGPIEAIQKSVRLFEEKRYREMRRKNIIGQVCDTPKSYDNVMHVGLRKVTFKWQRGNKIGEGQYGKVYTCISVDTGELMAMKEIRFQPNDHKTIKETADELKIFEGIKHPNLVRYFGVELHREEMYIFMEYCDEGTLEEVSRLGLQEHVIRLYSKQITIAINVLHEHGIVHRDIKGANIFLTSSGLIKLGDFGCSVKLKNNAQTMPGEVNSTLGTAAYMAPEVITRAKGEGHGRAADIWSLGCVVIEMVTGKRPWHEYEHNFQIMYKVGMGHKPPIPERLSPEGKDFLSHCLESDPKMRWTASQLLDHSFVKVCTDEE", "experimental": "as §1"}, "[22]": {"target": "EGFR(G719S) (Homo sapiens, UniProt P00533, G719S)", "experimental": "as §1"}, "[23]": {"target": "MKNK2 (Homo sapiens, UniProt Q9HBH9)", "sequence (Q9HBH9 whole entry)": "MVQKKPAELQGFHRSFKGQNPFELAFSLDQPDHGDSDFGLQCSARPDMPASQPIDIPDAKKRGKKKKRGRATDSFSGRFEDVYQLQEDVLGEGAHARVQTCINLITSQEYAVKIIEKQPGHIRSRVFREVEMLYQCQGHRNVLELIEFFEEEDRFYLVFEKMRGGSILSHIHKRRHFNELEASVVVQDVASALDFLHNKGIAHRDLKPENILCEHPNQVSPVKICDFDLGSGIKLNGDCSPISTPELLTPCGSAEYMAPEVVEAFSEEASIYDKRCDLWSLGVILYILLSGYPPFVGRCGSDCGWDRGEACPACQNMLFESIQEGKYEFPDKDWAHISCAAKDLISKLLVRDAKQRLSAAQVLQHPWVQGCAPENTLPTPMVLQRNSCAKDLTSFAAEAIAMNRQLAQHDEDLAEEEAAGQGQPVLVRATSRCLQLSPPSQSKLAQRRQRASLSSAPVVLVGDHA", "experimental": "as §1"}, "[24]": {"target": "CAMK4 (Homo sapiens, UniProt Q16566)", "experimental": "as §1"}, "[25]": {"target": "PKN1 (Homo sapiens, UniProt Q16512)", "experimental": "as §1"}, "[26]": {"target": "RSK3(Kin.Dom.2-C-terminal) (Homo sapiens, UniProt Q15349)", "experimental": "as §1"}},
  "data": [
    {"smiles": "O=C1CCC(N2C(=O)c3cccc(NCCCCCCCCNC(=O)N4CC[C@H](NC5=Nc6cc(F)ccc6N(CC(F)F)c6ccc(Cl)cc65)C4)c3C2=O)C(=O)N1", "note": "(stereo partly drawn) [BJG-05-039, (3S)-3-((2-Chloro-5-(2,2-difluoroethyl)-8-fluoro-5H-dibenzo[b,e][1,4]diazepin-11-yl)amino)-N-(8-((2-(2,6-dioxopiperidin-3-yl)-1,3-dioxoisoindolin-4-yl)amino)octyl)pyrrolidine-1-carboxamide]", "values": [
      {"measurement": "remaining binding at 10 µM", "setting": "[1]", "value": 100, "unit": "%"},
      {"measurement": "remaining binding at 10 µM", "setting": "[2]", "value": 84, "unit": "%"},
      {"measurement": "remaining binding at 10 µM", "setting": "[3]", "value": 52, "unit": "%"},
      {"measurement": "remaining binding at 10 µM", "setting": "[4]", "value": 89, "unit": "%"},
      {"measurement": "remaining binding at 10 µM", "setting": "[5]", "value": 100, "unit": "%"},
      {"measurement": "remaining binding at 10 µM", "setting": "[6]", "value": 63, "unit": "%"},
      {"measurement": "remaining binding at 10 µM", "setting": "[7]", "value": 92, "unit": "%"},
      {"measurement": "remaining binding at 10 µM", "setting": "[8]", "value": 83, "unit": "%"},
      {"measurement": "remaining binding at 10 µM", "setting": "[9]", "value": 100, "unit": "%"},
      {"measurement": "remaining binding at 10 µM", "setting": "[10]", "value": 83, "unit": "%"},
      {"measurement": "remaining binding at 10 µM", "setting": "[11]", "value": 74, "unit": "%"},
      {"measurement": "remaining binding at 10 µM", "setting": "[12]", "value": 91, "unit": "%"},
      {"measurement": "remaining binding at 10 µM", "setting": "[13]", "value": 95, "unit": "%"},
      {"measurement": "remaining binding at 10 µM", "setting": "[14]", "value": 56, "unit": "%"},
      {"measurement": "remaining binding at 10 µM", "setting": "[15]", "value": 78, "unit": "%"},
      {"measurement": "remaining binding at 10 µM", "setting": "[16]", "value": 99, "unit": "%"},
      {"measurement": "remaining binding at 10 µM", "setting": "[17]", "value": 97, "unit": "%"},
      {"measurement": "remaining binding at 10 µM", "setting": "[18]", "value": 92, "unit": "%"},
      {"measurement": "remaining binding at 10 µM", "setting": "[19]", "value": 50, "unit": "%"},
      {"measurement": "remaining binding at 10 µM", "setting": "[20]", "value": 99, "unit": "%"},
      {"measurement": "remaining binding at 10 µM", "setting": "[21]", "value": 95, "unit": "%"},
      {"measurement": "remaining binding at 10 µM", "setting": "[22]", "value": 84, "unit": "%"},
      {"measurement": "remaining binding at 10 µM", "setting": "[23]", "value": 94, "unit": "%"},
      {"measurement": "remaining binding at 10 µM", "setting": "[24]", "value": 74, "unit": "%"},
      {"measurement": "remaining binding at 10 µM", "setting": "[25]", "value": 95, "unit": "%"},
      {"measurement": "remaining binding at 10 µM", "setting": "[26]", "value": 51, "unit": "%"}
    ]}
  ]
}
